The record followed here is EP0808833B1, “Vitamin D3 analogs” (F. HOFFMANN-LA ROCHE AG, priority 1996, dated 1997).

Read-outs that look alike come from different tables or passages of the source. Marks after values point to notes of the source that are not given here.

Data set [1] concerns sebaceous cells. The data set can be described thus: Inhibition of human sebocyte proliferation in vitro. As to conditions: amount of compound necessary to inhibit proliferation of sebaceous cells by 50% as compared to a vehicle-treated culture, tested at 10^-6, 10^-7 and 10^-8 M, read-out: ED50 (the source's name). The class given is cell-based. How it is done: Inhibition of Human Sebocyte Proliferation In Vitro
The cells were cultured in Iscove's medium containing 10% fetal calf serum and 4 µg/ml dexamethasone on a layer of growth-arrested 3T3 mouse fibroblasts. Cells were plated in medium without the test compound and then given test compound in fresh medium 24-48 hours after the initial plating. The cultures were given fresh medium, containing the test compound, every 48 hours. On the day of harvesting, the cultures were rinsed with 0.03% EDTA (ethylenediamine tetroacetic acid) in PBS (phosphate-buffered saline), to remove only the 3T3 fibroblasts, followed by incubation in 0.05% trypsin/0.03% EDTA. The cells were suspended, mixed vigorously to prepare a single cell suspension and counted in a hemocytometer.
Stock solutions of compounds were made up as 10^-2 M solutions in degassed 100% ethanol and stored at -20°C in the dark. During experimental use, the solutions, which have been aliquoted, were brought to room temperature and used by diluting directly into complete medium to the appropriate concentration.

Data set [2] can be described thus: Calcium tolerance test in mice. The class given is in vivo. As to conditions: highest tolerated dose = dose resulting in zero weight gain, daily subcutaneous administration for 4 consecutive days; for MTD: mouse, in vivo, sc, read-out: HTD. The source says: Calcium tolerance test in mice
Profound changes in calcium homeostasis strongly affect the weight development of mice. Mice (25-30 g body weight) received daily subcutaneous administrations of the compound for 4 consecutive days. Body weight was registered just before and at the end of a […] treatment period. The "highest tolerated dose" (HTD) is the dose which results in zero weight gain during this treatment period.

The test system of data set [3] is HaCaT cells. The data set can be described thus: Inhibition of keratinocyte proliferation (3H-thymidine uptake, HaCaT). Format: cell-based. As to conditions: Homo sapiens, 3H-thymidine incorporation after 6 days of culture in presence of the test compound.
In data set [4] the test system is HL-60 cells. Put plainly: HL-60 cell differentiation (NBT reduction). Format: cell-based. As to conditions: Homo sapiens, HL-60, 72 h, concentration leading to 50% of maximal differentiation achieved with 100-1000 nM calcitriol, 3 days, read-out: ED50 (the source's name).
Data set [5] relates to UVB-Induced Dermal Damage. Put plainly: Repair of UVB-induced dermal damage in the hairless mouse. The settings on record: treated three times per week after UVB irradiation. Format: in vivo, Hairless mice. The method, then:
Repair of UVB-Induced Dermal Damage in the Hairless Mouse by Compounds of Formula I Hairless mice (female, HRS/J strain, Jackson Labs, 5-7 weeks old at the start of the experiments) were housed in yellow light and irradiated three times per week with a bank of 8 Westinghouse Sunlamps (FS72T12 HO, peak irradiance at 313 nm) placed about 20 cm above the animals. UVB output was measured on an International Light Research Radiometer, model IL 1700, using a SEE240 detector. With this setup, the lamp output was approximately 3.5 mW/cm^2 and the time of exposure for 0.06 J/cm^2 was about 17 seconds; 1 MED is approximately 0.03 J/cm^2. The precise dose was delivered by a IL […] Phototherapy Exposure Control. Daily doses were 0.03 J/cm^2 for two weeks, 0.06 J/cm^2 for two weeks and 0.08 J/cm^2 thereafter, until a total dose of approximately 4 J/cm^2 was accumulated. To effect repair of the dermal damage, the UVB irradiation was discontinued and the animals were divided into groups of approximately eight and treated three times per week with various concentrations of the vitamin D analogs dissolved in ethanol. All dosing was done under yellow light. […] In these studies, since the width of the zone varies considerably, the area of the zone on a standard length of histological section is measured by image analysis. Compounds are tested at three doses and an approximate ED50 calculated.

Data set [6] relates to T47-D breast carcinoma cells. The data set can be described thus: Antiproliferative activity in T47-D breast carcinoma cells (MTT). The settings on record: Homo sapiens, T47D, 72 h. The class given is cell-based.

With `C=C1C(=CC=C2CCCC3(C)C(C(C)CC#CC(C)(C)O)=CCC23)CC(O)CC1O` (stereo not drawn) [1,25-Dihydroxy-16-ene-23-yne-20-epi-cholecalciferol], the EC50 in data set [1] stood at 50 nM. For the same molecule, the HTD in data set [2] is given as 100 µg/kg.

For `C=C1/C(=C\C=C2/CCC[C@]3(C)[C@@H]([C@H](C)CCCC(C)(C)O)CC[C@@H]23)C[C@@H](O)C[C@@H]1O` [1,25-Dihydroxy-cholecalciferol, reference compound], in data set [2], the MTD came to 0.5 µg/kg.

For “1,25-Dihydroxy-16,23Z-diene-26,27-hexafluoro-20-epi-19-norcholecalciferol”, the HTD in data set [2] is reported as 3.0 µg/kg.

Consider `C=C1/C(=C\C=C2/CCC[C@]3(C)C([C@@H](C)CC#CC(O)(C(F)(F)F)C(F)(F)F)=CC[C@@H]23)C[C@@H](O)C[C@@H]1O` [1,25-Dihydroxy-16-ene-23-yne-26,27-hexafluoro-20-epi-cholecalciferol], for which the EC50 in data set [1] was less than 10 nM. In addition, in data set [2], the HTD came to 6.0 µg/kg.

`C=C1C(=CC=C2CCCC3(C)C(C(C)C/C=C\C(O)(C(F)(F)F)C(F)(F)F)=CCC23)CC(O)CC1O` (stereo not drawn) [1,25-Dihydroxy-16,23Z-diene-26,27-hexafluoro-20-epi-cholecalciferol]: the HTD in data set [2] is 2.5 µg/kg.

In the case of `C=C1/C(=C\C=C2/CCC[C@]3(C)C([C@@H](C)C/C=C/C(O)(C(F)(F)F)C(F)(F)F)=CC[C@@H]23)C[C@@H](O)C[C@@H]1O` [1,25-Dihydroxy-16,23E-diene-26,27-hexafluoro-20-epi-cholecalciferol], the half-inhibitory concentration (IC50) (as a rule, the concentration needed to halve the response being measured) amounted to 0.7 nM in data set [3] and 10 nM in data set [6]. Further, the EC50 in data set [1] (Homo sapiens) was less than 10 nM; in data set [4], 0.37 nM. The “Repair Zone” value in data set [5] (Dose 0.1 µg, P < 0.001 vs vehicle control) is 0.0282±0.0092*** mm^2; in data set [5] (Dose 0.5 µg, P < 0.05 vs vehicle control), 0.0102±0.0067* mm^2. In addition, the MTD in data set [2] worked out at 2.5 µg/kg.

With `C=C1C(=CC=C2CCCC3(C)C(C(C)C/C=C\C(O)(C(F)(F)F)C(F)(F)F)=CCC23)CC(O)CC1F` (stereo not drawn) [1α-Fluoro-25-hydroxy-16,23Z-diene-26,27-hexafluoro-20-epi-cholecalciferol], the HTD in data set [2] turned out to be 8.0 µg/kg.

For `C=C1C(=CC=C2CCCC3(C)C(C(C)CCCC(C)(C)O)=CCC23)CC(O)CC1O` (stereo not drawn) [1,25-Dihydroxy-16-ene-20-epi-cholecalciferol], the EC50 in data set [1] was less than 1 nM. The HTD in data set [2] is on record as 30 µg/kg.
